Several values for one entry are separate records, joined by “and”; a condition that tells them apart may be missing. Equal entries are not always repeated. Where two headings read alike, the source gives them in different places.
Columns and labels:
LcPTR1 [1] = target: T1, LcPTR1 (Leishmania infantum, UniProt A4I067); experiment: LcPTR1 inhibition assay (single concentration and IC50, NADPH consumption at 340 nm); format: biochemical; settings: for Ki: obtained from Cheng-Prussov equation for competitive inhibitors; for Selectivity Ki LcPTR1/ Ki LcDHFR-TS: ratio of Ki values
Method: (§1) Kinetic measurements were performed according to the protocol described[32] via spectrophotometer (Shimadzu UV-1800) at pH 4.7 (20 mM sodium acetate). NADPH consumption was monitored spectrophotometrically (340 nm) at constant temperature (30 °C). The variation of the absorbance monitored for 60 s was used to calculate the initial rate of the reaction by linear regression.
(§2) Comparison of the enzymatic activities in the absence and presence of the compounds (50 μM), which were dissolved in DMSO (5% v/v final concentration), was employed to calculate the percent inhibition (Equation (1)) (1) % Inhibition=100 − (Vi/Vc)×100 where Vi is the initial velocity in the presence of the inhibitor and Vc is the reaction rate in the presence of DMSO (5% (v/v)).
(§3) The results of this analysis were plotted in double-reciprocal graphs for visual analysis purposes only.

LcDHFR-TS [2] = target: T2, LcDHFR-TS (Leishmania infantum, UniProt Q8MQV3); experiment: LcDHFR-TS inhibition assay (single concentration and IC50, NADPH consumption at 340 nm); format: biochemical; settings: for IC50: DHF 5.0 µM, NADPH 5.0 µM, pH 7.0, >50 from single-concentration assay; for Ki: obtained from Cheng-Prussov equation for competitive inhibitors
Method: (§4) Kinetic measurements were carried out using a standard assay, at pH 7.0 (50 mM sodium phosphate). Briefly, NADPH consumption was monitored spectrophotometrically ([…]) (Shimadzu® UV-1800, Columbia MD, USA) at constant temperature (25 °C) and the absorbance variation within the first 30 s was employed to calculate the initial rate of reaction, by linear regression of the raw data.
as §2, §3

LdPTR1 = tested on: LdPTR1; set-up: method as in PMID 21115787; settings: double-reciprocal plot, His-tag fused protein; read-out: Km app for LdPTR1; cited from earlier work
L. tropica PTR1 = tested on: L. tropica PTR1; set-up: method as in PMID 10415124; settings: cited from earlier work
L. major PTR1 = settings: cited from earlier work
L. tarantoleae PTR1 = tested on: L. tarantoleae PTR1; set-up: method as in PMID 10415124; settings: read-out: Km app for L. tarantoleae PTR1; cited from earlier work
LcPTR1 [3] = target: T1, LcPTR1; experiment: Determination of the inhibition mechanism, LcPTR1; format: biochemical
Source text: as §3

LcDHFR-TS [4] = target: T2, LcDHFR-TS; experiment: LcDHFR-TS apparent Km determination; format: biochemical, Leishmania chagasi
Method: as §4
The effect of the pH (5.0–8.0) over enzymatic activity was investigated with 0.2 μM of LcDHFR-TS and saturating NADPH and DHF concentrations (100 μM) (50 mM citrate buffer was used for pH 5.0 activity assay. 50 mM sodium phosphate buffer was used for pH range 6.0 to 8.0 activity assay). […] All the measurements were carried out in triplicate and the apparent Km values for the cofactor and substrate were determined under a pseudo first-order kinetics assumption using least-squares non-linear regression method, as available in the GraphPad Prism version 5.0 for Windows (GraphPad® Software, San Diego, CA, USA, www.graphpad.com).

DHFR-TS [5] = settings: read-out: Km app for L. tropica DHFR-TS; cited from earlier work
DHFR-TS [6] = settings: read-out: Km app for L. major DHFR-TS; cited from earlier work
LcDHFR-TS [7] = target: T2, LcDHFR-TS; experiment: Determination of the inhibition mechanism, LcDHFR-TS; format: biochemical
Source text: as §3

LcPTR1 [8] = target: T1, LcPTR1; format: biochemical, Leishmania chagasi; settings: restated without unit; read-out: Km app for LcPTR1
Method: as §1

[9] = pH 7.0, 25 °C, other substrate saturating
[10] = pH 7.0, 25 °C, other substrate saturating, read-out: Km app for LcDHFR-TS
[11] = restated without unit, read-out: Km app for LcDHFR

T1 sequence (A4I067 entry or part of it): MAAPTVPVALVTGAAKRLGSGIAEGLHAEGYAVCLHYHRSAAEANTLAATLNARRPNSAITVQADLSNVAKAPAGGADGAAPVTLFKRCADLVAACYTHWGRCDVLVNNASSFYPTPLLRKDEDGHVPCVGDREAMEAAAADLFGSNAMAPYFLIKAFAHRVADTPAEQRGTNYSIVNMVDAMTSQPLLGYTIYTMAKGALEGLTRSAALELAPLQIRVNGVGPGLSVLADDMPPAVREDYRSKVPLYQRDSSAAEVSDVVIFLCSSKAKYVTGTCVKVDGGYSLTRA
T2 sequence (Q8MQV3 entry or part of it): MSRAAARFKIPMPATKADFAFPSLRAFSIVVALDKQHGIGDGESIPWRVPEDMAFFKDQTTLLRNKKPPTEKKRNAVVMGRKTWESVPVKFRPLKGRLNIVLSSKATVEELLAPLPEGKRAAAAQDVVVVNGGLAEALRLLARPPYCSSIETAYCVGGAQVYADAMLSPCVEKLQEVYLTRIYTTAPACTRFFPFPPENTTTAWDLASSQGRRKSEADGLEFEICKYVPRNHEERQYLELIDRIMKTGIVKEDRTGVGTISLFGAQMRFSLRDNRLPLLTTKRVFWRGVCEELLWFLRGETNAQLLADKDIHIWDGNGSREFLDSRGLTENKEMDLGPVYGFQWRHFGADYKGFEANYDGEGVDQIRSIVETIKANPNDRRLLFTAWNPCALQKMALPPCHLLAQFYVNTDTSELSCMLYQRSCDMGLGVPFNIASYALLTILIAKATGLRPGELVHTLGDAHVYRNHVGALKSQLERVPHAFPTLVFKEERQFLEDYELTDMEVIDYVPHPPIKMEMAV

Q: With `Nc1nc(N)c(Cc2ccccc2)c(CC2CCCCC2)n1` [Compound 2] as the compound, how does the IC50 (LcPTR1 [1]) read?
A: 4.1 µM

Q: What about the Ki (LcPTR1 [1]) of the same compound?
A: 2.05 µM

Q: What about the inhibition at 50 µM (LcPTR1 [1]; pH 4.7) of the same compound?
A: 40 ± 1%

Q: What about the “Selectivity Ki LcPTR1/ Ki LcDHFR-TS” value (LcPTR1 [1]) of the same compound?
A: 0.68

Q: And the IC50 (LcDHFR-TS [2])?
A: 18 µM

Q: And the Ki (LcDHFR-TS [2])?
A: 3 µM

Q: And the inhibition at 50 µM (LcDHFR-TS [2]; pH 7)?
A: 20 ± 2.4%

Q: With `CC(C)Cc1ccc(C(C)c2nc(N)nc(N)c2-c2ccccc2)cc1` (centres unmarked) [Compound 4] as the compound, how does the IC50 (LcPTR1 [1]) read?
A: 66.3 ± 9.01 µM

Q: And the inhibition at 50 µM (LcPTR1 [1]; pH 4.7)?
A: 40 ± 1%

Q: And the inhibition at 50 µM (LcDHFR-TS [2]; pH 7)?
A: 20 ± 2.4%

Q: What does the source list for biopterin?
A: Km (LdPTR1): 5.8 µM; Km (L. tropica PTR1): 3.5 µM; Km (L. major PTR1): 4.6 µM; Km (L. tarantoleae PTR1): 3.5 µM

Q: Which IC50 (LcPTR1 [1]) does the source give for `Nc1nc(N)c2ccccc2n1` [Compound 5] here?
A: 0.94 µM

Q: What about the Ki (LcPTR1 [1]) of the same compound?
A: 0.47 µM

Q: What about the inhibition at 50 µM (LcPTR1 [1]; pH 4.7) of the same compound?
A: 98 ± 0.8%

Q: And the selectivity index (LcPTR1 [1]; selective LcPTR1 inhibitor, LcPTR1 over LcDHFR-TS (abstract))?
A: 20

Q: And the IC50 (LcDHFR-TS [2])?
A: > 50 µM

Q: What about the Ki (LcDHFR-TS [2]) of the same compound?
A: > 8.33 µM

Q: What about the inhibition at 50 µM (LcDHFR-TS [2]; pH 7) of the same compound?
A: 20 ± 2.4%

Q: What about the “mechanism of inhibition with respect to biopterin” value (LcPTR1 [3]) of the same compound?
A: competitive

Q: What about the “mechanism of inhibition with respect to the cofactor NADPH” value (LcPTR1 [3]) of the same compound?
A: uncompetitive

Q: Which IC50 (LcPTR1 [1]) does the source give for `COc1ccccc1CCc1nc(N)nc(N)c1Cc1ccccc1` [Compound 3] here?
A: 4.6 µM

Q: And the Ki (LcPTR1 [1])?
A: 2.3 µM

Q: What about the LcPTR1 inhibition (LcPTR1 [1]; pH 4.7) of the same compound?
A: active

Q: And the “Selectivity Ki LcPTR1/ Ki LcDHFR-TS” value (LcPTR1 [1])?
A: 3.3 and 3.29

Q: What about the IC50 (LcDHFR-TS [2]) of the same compound?
A: 4.2 µM

Q: And the Ki (LcDHFR-TS [2])?
A: 0.7 µM

Q: And the LcDHFR-TS inhibition (LcDHFR-TS [2]; pH 7)?
A: active

Q: With `Nc1nc(=O)c2c([nH]1)NCC(CNc1ccc(C(=O)N[C@@H](CCC(=O)O)C(=O)O)cc1)=N2` [DHF] as the compound, how does the “Vmax app for LcDHFR-TS” value (LcDHFR-TS [4]; [9]) read?
A: 2.0 ± 0.11 nmol/min/mL

Q: What about the Km (LcDHFR-TS [4]; [10]) of the same compound?
A: 1 ± 0.2 µM

Q: And the Km (LcDHFR-TS [4]; [11])?
A: 1 µM

Q: And the Km (DHFR-TS [5])?
A: 1.5 µM

Q: What about the Km (DHFR-TS [6]) of the same compound?
A: 1.6 µM

Q: What does the source list for `Nc1nc(N)c(Cc2ccccc2)c(CCCc2ccccc2)n1` [Compound 1]?
A: IC50 (LcPTR1 [1]): 3 µM; Ki (LcPTR1 [1]): 1.5 µM; inhibition at 50 µM (LcPTR1 [1]; pH 4.7): 90 ± 1%; Selectivity Ki LcPTR1/ Ki LcDHFR-TS (LcPTR1 [1]): 5.4 and 5.45; IC50 (LcDHFR-TS [2]): 1.65 µM; Ki (LcDHFR-TS [2]): 0.28 µM; inhibition at 50 µM (LcDHFR-TS [2]; pH 7): 100 ± 1.17%; mechanism of inhibition with respect to biopterin (LcPTR1 [3]): competitive; mechanism of inhibition with respect to the cofactor NADPH (LcPTR1 [3]): uncompetitive; NADPH Vmax app in presence of inhibitor (LcDHFR-TS [7]; compound 1 at 2 µM): 1.0 ± 0.1 nmol/min/mL; NADPH Vmax app in presence of inhibitor (LcDHFR-TS [7]; compound 1 at 5 µM): 0.5 ± 0.05 nmol/min/mL; DHF Vmax app in presence of inhibitor (LcDHFR-TS [7]; not affected by increasing concentrations of compound 1): 1.9 ± 0.1 nmol/min/mL; mechanism of inhibition related to cofactor NADPH (LcDHFR-TS [7]; saturating DHF 12.5 µM, varying NADPH): noncompetitive; mechanism of inhibition related to substrate DHF (LcDHFR-TS [7]; saturating NADPH 50 µM, varying DHF): competitive

Q: What does the source list for `NC(=O)C1=CN([C@@H]2O[C@H](COP(=O)(O)OP(=O)(O)OC[C@H]3O[C@@H](n4cnc5c(N)ncnc54)[C@H](OP(=O)(O)O)[C@@H]3O)[C@@H](O)[C@H]2O)C=CC1` [NADPH]?
A: Km (LcPTR1 [8]): 37.5 µM; Vmax app for LcDHFR-TS (LcDHFR-TS [4]; [9]): 1.6 ± 0.1 nmol/min/mL; Km (LcDHFR-TS [4]; [10]): 2.3 ± 0.5 µM; Km (LcDHFR-TS [4]; [11]): 2.3 µM; Km (LdPTR1): 18.5 µM; Km (L. tropica PTR1): 19 µM; Km (L. major PTR1): 6.7 µM; Km (L. tarantoleae PTR1): 19 µM; Km (DHFR-TS [5]): 2.7 µM; Km (DHFR-TS [6]): 0.45 µM

From publication PMC6713189, “Dual and selective inhibitors of pteridine reductase 1 (PTR1) and dihydrofolate reductase-thymidylate synthase (DHFR-TS) from Leishmania chagasi” (Journal of Enzyme Inhibition and Medicinal Chemistry, 2019)
